≈ marks a conversion by molar mass, not a printed value.
Key:
[1] = Inhibition of bovine brain tubulin polymerization incubated for 30 mins by turbidimetric assay; format: tissue-based, Bos taurus
[2] = test system: HeLa; test: Antiproliferative activity against human HeLa cells assessed as inhibition of cell growth after 72 hrs by XTT assay; format: functional, cell-based
[3] = test system: HL-60; test: Antiproliferative activity against human HL-60 cells assessed as inhibition of cell growth after 72 hrs by XTT assay; format: functional, cell-based; conditions: HL-60, 72 h
[4] = test system: HT-29; test: Antiproliferative activity against human HT-29 cells assessed as inhibition of cell growth after 72 hrs by XTT assay; format: functional, cell-based; conditions: HT-29, 72 h
[5] = Aqueous solubility of the compound in pH 7.0 phosphate buffer at 2 mg incubated for 72 hrs by shake flask method; format: physicochemical

| Structure (SMILES) | IC50 [1] [nM] | IC50 [2] [nM] | IC50 [3] [nM] | IC50 [4] [nM] | solubility thermodynamic at 72 h [5] [µg/mL] |
| --- | --- | --- | --- | --- | --- |
| CSc1cc(C(O)c2ccc(N(C)C)nc2)cc(SC)n1 (stereo unspecified) | > 5000 | ≥ 10 | ≥ 10 | ≥ 10 |  |
| COc1ccc(S(=O)(=O)Nc2cccnc2Nc2ccc(O)cc2)cc1 [ABT-751] | 4000 | 388 |  | 514 |  |
| CCOC(=O)C(O)(c1ccc(OC)cc1)c1cc(Cl)nc(SC)c1 (stereo unspecified) | > 5000 | ≥ 10 | ≥ 10 | ≥ 10 |  |
| CSc1cc(C(=NO)c2cccc(N(C)C)c2)cc(SC)n1 | > 5000 | ≥ 10 | ≥ 10 | ≥ 10 | 14.7 (≈ 44.1 µM) |
| CSc1cc(C(O)c2ccc(N(C)C)cc2)cc(SC)n1 (stereo unspecified) | > 5000 | ≥ 10 | ≥ 10 | ≥ 10 |  |
| C=C(c1cccc(N(C)C)c1)c1cc(SC)nc(SC)c1 | > 5000 | ≥ 10 | ≥ 10 | ≥ 10 | 2.4 (≈ 7.58 µM) |
| COc1ccc(C(C)c2cc(SC)nc(SC)c2)cc1 (stereo unspecified) | > 5000 | ≥ 10000 | ≥ 10000 | ≥ 10000 |  |
| COc1ccc(/C=C\c2cc(SC)nc(SC)c2)cc1 | 3800 | ≥ 10 | ≥ 10 | ≥ 10 |  |
| CSc1cc(C(=O)c2ccc3ccccc3c2)cc(SC)n1 | > 5000 | ≥ 10 | ≥ 10 | ≥ 10 |  |
| COc1ccc(C(=O)c2cc(Cl)nc(SC)c2)cc1 | > 5000 | ≥ 10000 | ≥ 10000 | ≥ 10000 |  |
| CSc1cc(/C=C\c2ccc3c(ccn3C)c2)cc(SC)n1 | > 5000 | ≥ 10 | ≥ 10 | 633 |  |
| COc1ccc(/C=C\c2cc(OC)c(OC)c(OC)c2)cc1O [COMBRETASTATIN A4] | 2800 |  |  | 305 |  |
| CSc1cc(C(=O)c2ccc3c(c2)c(C=O)cn3C)cc(Cl)n1 | > 5000 | ≥ 10 | ≥ 10 | ≥ 10 |  |
| CSc1cc(C(O)c2ccc3c(ccn3C)c2)cc(SC)n1 (stereo unspecified) | > 5000 | ≥ 10000 | ≥ 10000 | ≥ 10 |  |
| C=C(c1cc(Cl)nc(SC)c1)c1ccc2c(c1)c(C(=O)O)cn2C | > 5000 | ≥ 10 | ≥ 10 | ≥ 10 |  |
| CSc1cc(C(=NO)c2ccc3ccccc3c2)cc(SC)n1 | > 5000 | ≥ 10 | ≥ 10 | ≥ 10 |  |

More lines, in order of falling IC50 [1], values ahead:

| IC50 [1] [nM] | IC50 [2] [nM] | IC50 [3] [nM] | IC50 [4] [nM] | solubility thermodynamic at 72 h [5] [µg/mL] | Structure (SMILES) |
| --- | --- | --- | --- | --- | --- |
| 3800 | 328 | 486 | 928 | 6.9 (≈ 21.8 µM) | C=C(c1ccc(N(C)C)cc1)c1cc(SC)nc(SC)c1 |
| 3000 | 457 | 299 | 292 |  | COc1ccc(C(=NO)c2cc(SC)nc(SC)c2)cc1 |
| 2400 | 388 | 490 | ≥ 10 |  | CSc1cc(C(=O)c2ccc3c(ccn3C)c2)cc(Cl)n1 |
| 2400 | 601 | 223 | 276 |  | C=C(c1cc(SC)nc(SC)c1)c1ccc2c(c1)c(C(N)=O)cn2C |
| 2300 | 82 | 44 | 38 |  | C=C(c1cc(Cl)nc(SC)c1)c1ccc2c(c1)c(C(N)=O)cn2C |
| 1700 | 233 | 222 | 549 |  | CSc1cc(C(=O)c2ccc3c(ccn3C)c2)cc(SC)n1 |
| 1100 | 520 | 717 | 249 |  | C=C(c1cc(SC)nc(SC)c1)c1ccc2c(ccn2C)c1 |
| 1000 | 590 | 240 | 745 |  | CSc1cc(C(=NO)c2ccc3c(ccn3C)c2)cc(SC)n1 |
| 300 | 176 | 416 | 511 | 12.3 (≈ 39.1 µM) | C=C(c1cc(Cl)nc(SC)c1)c1ccc2c(ccn2C)c1 |

Source: ChEMBL document CHEMBL4732128, “Methylsulfanylpyridine based diheteroaryl isocombretastatin analogs as potent anti-proliferative agents” (Eur J Med Chem, 2021)
